Assay results published in PMC12839112, “Synthesis and Bioactivity Assessment of Novel Quinolinone–Triazole Hybrids” (Biomolecules, 2025).

What was measured:
[1] = Inhibition of linoleic acid peroxidation induced by AAPH radical; conditions: 100 μM, 37 °C, pH 7.4
Description: The in vitro assays were performed at a concentration of 100 µM (a 10 mM stock solution in DMSO was used, from which several dilutions were made for the determination of IC50 values), at least in triplicate, and the standard deviation of absorbance was less than 10% of the mean. The compounds were diluted in 0.1% DMSO under sonification in an appropriate buffer in several dilutions. Statistical comparisons were made using Student’s t-test. A statistically significant difference was defined as p < 0.05. The results were compared to the corresponding reference compounds.
The determination of the ability of the synthesized compounds to inhibit linoleic acid peroxidation induced by the radical initiator 2,2-Azobis(2-amidinopropane) dihydrochloride (AAPH) was performed according to Hadjipavlou-Litina et al.. Ten microliters of the 16 mM sodium linoleate solution were added to the UV cuvette containing 0.93 mL of a 0.05 M phosphate buffer, pH 7.4, pre-thermostated at 37 °C. The oxidation reaction was initiated at 37 °C under air by the addition of 50 µL of a 40 mM AAPH solution, which was used as a free radical initiator. Oxidation was carried out in the presence of aliquots (10 µL) in the assay without antioxidants and monitored at 234 nm. Lipid oxidation was recorded in the presence of the same level of DMSO served as a negative control. results are compared to the appropriate standard compound Trolox.
In an attempt to assess the in vitro antioxidant potential of the synthesized compounds, their inhibitory activity against lipid peroxidation of linoleic acid sodium salt was examined, induced by AAPH radical under atmospheric oxygen at 37 °C. The anti-lipid peroxidation was recorded with UV spectrophotometrically. The assay is a quick and widely used method for the assessment of antioxidant activity.

A549 cell line = assay: Cytotoxicity, MTT assay, A549 cells; conditions: Homo sapiens, A549, 24 h, read-out: % Cytotoxicity A549 (100 μΜ)
Description: (§1) The determination of the cell viability of HaCaT cells and the cell toxicity of A549 and A375 cell lines was performed according to Myriagkou et al. [57], via the MTT (3-(4,5-dimethylthiazol-2-yl)-2,5-diphenyltetrazolium bromide) assay. In a 96-well plate, cells were seeded at specific concentrations (30 × 10^4 cells/mL for HaCaT cells and 20 × 10^4 cells/mL for A549 and A375 cells) and incubated (37 °C, 5% CO2) for 24 h. Following this first incubation period, solutions of the tested compounds at various concentrations were added to the cells, and the plates were incubated for an additional 24 h. Upon the second incubation period, the appropriate volume of MTT solution (1 mg/mL in PBS, filtrated through a 0.22-μm filter) was added to each well, and the plate was incubated for 4 h, during which formazan crystals were formed. The crystals were dissolved by addition of 100 μL od DMSO in each cell and after 30 min of stirring, the absorbance was recorded at 450 nm using a microplate reader. All tests were undertaken on three replicates and compared to the control (untreated cells), the blank (medium), and the reference control (cells treated with 100 μM silibinin).
(§2) The cytotoxicity of the novel compounds was also measured via the mehtylthiazol tetrazolium (MTT) assay.

A375 cell line = assay: Cytotoxicity, MTT assay, A375 cells; conditions: Homo sapiens, A-375, 24 h, read-out: % Cytotoxicity A375 (100 μΜ)
Description: as §1, §2

[2] = Cell viability, MTT assay, HaCaT cells; conditions: human
Description: as §1, §2

[3] = biological target: T1, soybean lipoxygenase (LOX) (Glycine max, UniProt P08170); assay: Soybean LOX inhibition in vitro; type: biochemical; conditions: for IC50: sodium linoleate substrate; for inhibition at 100 µM: 100 μM (0.1 mM), read-out: Inhibition of LOX (% at 100 μΜ)
T1 sequence (P08170 1-839): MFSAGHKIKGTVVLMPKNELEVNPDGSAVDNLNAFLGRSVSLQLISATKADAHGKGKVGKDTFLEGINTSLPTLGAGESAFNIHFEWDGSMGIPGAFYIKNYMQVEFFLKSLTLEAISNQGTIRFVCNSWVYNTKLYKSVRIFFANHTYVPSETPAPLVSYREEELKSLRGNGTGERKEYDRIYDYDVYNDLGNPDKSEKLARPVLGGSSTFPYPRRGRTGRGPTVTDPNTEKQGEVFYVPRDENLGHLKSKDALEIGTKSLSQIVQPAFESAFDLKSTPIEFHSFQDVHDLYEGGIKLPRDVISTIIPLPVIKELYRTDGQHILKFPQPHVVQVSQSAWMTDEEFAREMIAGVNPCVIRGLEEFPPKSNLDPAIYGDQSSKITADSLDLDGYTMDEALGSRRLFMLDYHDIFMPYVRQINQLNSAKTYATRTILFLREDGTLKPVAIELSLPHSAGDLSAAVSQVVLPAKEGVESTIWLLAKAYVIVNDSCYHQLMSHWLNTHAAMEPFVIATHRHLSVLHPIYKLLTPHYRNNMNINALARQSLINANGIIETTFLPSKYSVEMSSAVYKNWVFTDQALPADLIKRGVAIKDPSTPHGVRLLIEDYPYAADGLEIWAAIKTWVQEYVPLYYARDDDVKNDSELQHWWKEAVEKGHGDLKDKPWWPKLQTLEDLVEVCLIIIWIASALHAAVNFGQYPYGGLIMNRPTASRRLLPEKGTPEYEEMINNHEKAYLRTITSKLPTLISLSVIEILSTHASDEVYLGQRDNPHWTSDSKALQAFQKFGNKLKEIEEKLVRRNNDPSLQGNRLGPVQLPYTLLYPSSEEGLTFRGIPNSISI
Description: The compounds were diluted in 0.1% DMSO under sonification in an appropriate buffer in several dilutions. Statistical comparisons were made using Student’s t-test. A statistically significant difference was defined as p < 0.05.
The determination of the inhibition of soybean LOX for the synthesized compounds was performed according to Hadjipavlou-Litina et al.. The tested compounds were incubated at room temperature with sodium linoleate (0.1 mM) and 0.2 mL of enzyme solution (1/9 × 10^−4 w/v in saline). The method was based on the conversion of sodium linoleate to 13-hydroperoxylinoleic acid at 234 nm. In order to determine the […] values, different concentrations were used.
As evidence of anti-inflammatory activity, the quinolinone derivatives were examined for their ability to inhibit soybean lipoxygenase (LOX). LOX catalyzes the cleavage of arachidonic acid to leukotrienes that are found to play a crucial role in the pathogenesis of some inflammatory diseases.

in vitro = conditions: human
Description: as §1, §2

Row | SMILES | IC50 [3] | Inhibition of Linoleic Acid Peroxidation (% at 100 μΜ) [1] | cytotoxicity at 100 µM (A549 cell line) | cytotoxicity at 100 µM (A375 cell line) | viability at 24 h, 100 µM [2] | inhibition at 100 µM [3] | viability at 24 h, 100 µM (in vitro)
1 | C#CCNC(=O)c1c(O)c2ccccc2n(C)c1=O [4a, 4-hydroxy-1-methyl-2-oxo-N-(prop-2-yn-1-yl)-1,2-dihydroquinoline-3-carboxamide] |  | 42.7% | 0% | 7% | 61.5% |  | 
2 | C#CCNC(=O)c1c(O)c2ccccc2n(Cc2ccccc2)c1=O [4b, 1-benzyl-4-hydroxy-2-oxo-N-(prop-2-yn-1-yl)-1,2-dihydroquinoline-3-carboxamide] | 43.2 µM | 14.7% | 45.7% | 7.6% | 88.7% |  | 
3 | C#CCNC(=O)c1c(O)c2ccccc2n(CC)c1=O [4c, 1-ethyl-4-hydroxy-2-oxo-N-(prop-2-yn-1-yl)-1,2-dihydroquinoline-3-carboxamide] | 22.5 µM | 100% | 16.4% | 0.2% | 90.5% |  | 
4 | C#CCNC(=O)c1c(O)c2ccccc2n(CCCCCCCC)c1=O [4e, 4-hydroxy-1-octyl-2-oxo-N-(prop-2-yn-1-yl)-1,2-dihydroquinoline-3-carboxamide] | 48.3 µM | 34.9% | 33.7% | 22.6% | 76.2% |  | 
5 | C#CCNC(=O)c1c(O)c2ccccc2n(CCCc2ccccc2)c1=O [4f, 4-hydroxy-2-oxo-1-(3-phenylpropyl)-N-(prop-2-yn-1-yl)-1,2-dihydroquinoline-3-carboxamide] |  | 81.1% | 0% | 0% |  | 49.3% | 76.9%
6 | C#CCNC(=O)c1c(O)c2ccccc2n(CC=Cc2ccccc2)c1=O [4g, 1-cinnamyl-4-hydroxy-2-oxo-N-(prop-2-yn-1-yl)-1,2-dihydroquinoline-3-carboxamide] | 51.2 µM | 27.6% | 35.2% | 11.7% | 100% |  | 
7 | O=C(NCc1cn(Cc2ccccc2)nn1)c1c(O)c2ccccc2n(Cc2ccccc2)c1=O [5b, 1-benzyl-N-((1-benzyl-1H-1,2,3-triazol-4-yl)methyl)-4-hydroxy-2-oxo-1,2-dihydroquinoline-3-carboxamide] | 46 µM | 89.0% | 49.9% | 0% | 86.5% |  | 
8 | O=C(NCc1cn(Cc2ccccc2)nn1)c1c(O)c2ccccc2n(CCCc2ccccc2)c1=O [5f, N-((1-benzyl-1H-1,2,3-triazol-4-yl)methyl)-4-hydroxy-2-oxo-1-(3-phenylpropyl)-1,2-dihydroquinoline-3-carboxamide] | 50 µM | 98.0% | 12.5% | 23.7% | 100% |  | 
9 | CC(C)=CCn1cc(CNC(=O)c2c(O)c3ccccc3n(CC=Cc3ccccc3)c2=O)nn1 [5h, 1-cinnamyl-4-hydroxy-N-((1-(3-methylbut-2-en-1-yl)-1H-1,2,3-triazol-4-yl)methyl)-2-oxo-1,2-dihydroquinoline-3-carboxamide] |  | 18.7% | 0% | 0% | 98.9% | 44.5% | 
10 | CC(C)=CCn1cc(CNC(=O)c2c(O)c3ccccc3n(Cc3ccccc3)c2=O)nn1 [5j, 1-benzyl-4-hydroxy-N-((1-(3-methylbut-2-en-1-yl)-1H-1,2,3-triazol-4-yl)methyl)-2-oxo-1,2-dihydroquinoline-3-carboxamide] | 41 µM | 92.0% | 18.8% | 0% | 100% |  | 
11 | COc1cc(C2Oc3cc([C@H]4Oc5cc(O)cc(O)c5C(=O)[C@@H]4O)ccc3OC2CO)ccc1O (some centres unmarked) [Silibinin, silibinin, reference compound] |  |  | 57.4% | 12.6% | 47.2% |  | 
12 | Cc1c(C)c2c(c(C)c1O)CCC(C)(C(=O)O)O2 (centres unmarked) [Trolox, reference compound] |  | 88.0% |  |  |  |  | 

More lines, main results first:

Row | IC50 [3] | SMILES | Inhibition of Linoleic Acid Peroxidation (% at 100 μΜ) [1] | cytotoxicity at 100 µM (A549 cell line) | cytotoxicity at 100 µM (A375 cell line) | viability at 24 h, 100 µM [2] | inhibition at 100 µM [3] | viability at 24 h, 100 µM (in vitro)
13 | 10 µM | Cn1c(=O)c(C(=O)NCc2cn(Cc3ccccc3)nn2)c(O)c2ccccc21 [5a, N-((1-benzyl-1H-1,2,3-triazol-4-yl)methyl)-4-hydroxy-1-methyl-2-oxo-1,2-dihydroquinoline-3-carboxamide] | 98.0% | 24.2% | 0% | 100% |  | 
14 | 51.5 µM | CCn1c(=O)c(C(=O)NCc2cn(Cc3ccccc3)nn2)c(O)c2ccccc21 [5c, N-((1-benzyl-1H-1,2,3-triazol-4-yl)methyl)-1-ethyl-4-hydroxy-2-oxo-1,2-dihydroquinoline-3-carboxamide] | 94.0% | 0% | 0% | 100% |  | 
15 | 47.5 µM | CCn1c(=O)c(C(=O)NCc2cn(CCCc3ccccc3)nn2)c(O)c2ccccc21 [5d, 1-ethyl-4-hydroxy-2-oxo-N-((1-(3-phenylpropyl)-1H-1,2,3-triazol-4-yl)methyl)-1,2-dihydroquinoline-3-carboxamide] | 92.0% | 28.9% | 10.5% | 99.6% |  | 
16 | 45 µM | CCn1c(=O)c(C(=O)NCc2cn(C/C=C/c3ccccc3)nn2)c(O)c2ccccc21 [5e, (E)-N-((1-cinnamyl-1H-1,2,3-triazol-4-yl)methyl)-1-ethyl-4-hydroxy-2-oxo-1,2-dihydroquinoline-3-carboxamide] | 91.0% | 7.3% | 35.2% | 27.6% |  | 
17 | 75 µM | CC(C)=CCn1c(=O)c(C(=O)NCc2cn(Cc3ccccc3)nn2)c(O)c2ccccc21 [5g, N-((1-benzyl-1H-1,2,3-triazol-4-yl)methyl)-4-hydroxy-1-(3-methylbut-2-en-1-yl)-2-oxo-1,2-dihydroquinoline-3-carboxamide] | 83.0% | 13.4% | 46.8% | 100% |  | 
18 | 70 µM | CCn1c(=O)c(C(=O)NCc2cn(CC=C(C)C)nn2)c(O)c2ccccc21 [5i, 1-ethyl-4-hydroxy-N-((1-(3-methylbut-2-en-1-yl)-1H-1,2,3-triazol-4-yl)methyl)-2-oxo-1,2-dihydroquinoline-3-carboxamide] | 96.0% |  |  |  |  | 
